Activity calls are given as the source filed them.

We go through 6 molecules from ChEMBL document CHEMBL1201862, “PubChem BioAssay data set” (2004).

One assay addresses Beta-galactosidase (Escherichia coli, UniProt Q8VNN2). The assay is described as follows: Dose response counterscreen for EBI2 assay utilizing the enzyme, b-galactosidase. It is filed as functional. In general terms: The purpose of a counterscreen is to sort out artefacts and off-target activity.
For a further assay, the target named is Galanin receptor type 3 (Homo sapiens, UniProt O60755). Put plainly: Fluorescence-based cell-based primary high throughput dose response assay to identify antagonists of the Galanin Receptor 3 (GalR3). In kind it is functional.
Assay [1] in a line: cells. In kind it is functional, cell-based. Particulars: HEK-CNG.
In assay [2] the target is Endoplasmic reticulum aminopeptidase 1 (Homo sapiens, UniProt Q9NZ08). The assay is described as follows: inhibition of human ERAP1 enzyme activity – biochemical, cherry-pick, set 2, plate reader, dose response (AID 743314).
Assay [3] addresses Protein disulfide-isomerase (Homo sapiens, UniProt P07237). Put plainly: inhibition of PDI-mediated insulin reduction – biochemical, turbidity, dry powder samples, set 2, confirmation (AID 652146).
A short description of assay [4]: HEK293T viability loss – cell-based, ATP luminescence, dry powder, Set6, cytotoxicity control, dose response (AID 743142). It is filed as functional. Conditions: HEK293.
The nature of assay [5]: viability loss in A549 lung cancer cells – cell-based, CellTiter-Glo luminescence, dry powder, set 3, cytotoxicity control, dose response (AID 743146). In kind it is functional. (In general: ATP-based viability assays read luminescence as a measure of living cells.)
The target of a further assay is Major prion protein (Homo sapiens, UniProt P04156). In kind it is functional, cell-based.
Assay [6] is described as follows: cells.
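For EC50 in this document: target is galanin receptor GalR3 read with a cAMP biosensor in HEK293 cells.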

Usually IC50 stands for the concentration at which inhibition is half-maximal. For the molecule `COc1ccccc1N1CCN(C(=O)c2cc3c(s2)-c2ccccc2OC3)CC1`, the IC50 on Beta-galactosidase is > 80 µM (inactive).

For orientation: EC50 means the concentration at which the effect is half-maximal. In the case of `CC1(CSc2ccccc2)CC(=O)N1` (centres undefined), the IC50 on Galanin receptor type 3 was > 29.9 µM (inactive). For the same molecule, the EC50 in “cells [1]” was > 29.9 µM (inactive).

A word on the AC50: it is the concentration at which the activity in the assay is half-maximal. As to `CC1CCN(Cc2cc(=O)oc3cc(O)c(Cl)cc23)CC1`, in assay [2], the AC50 is 6.33 µM (active).

As to `CCOC(=O)C1(CCOC)CCN(Cc2ccc(O)c(Cl)c2)CC1`, the AC50 in assay [3] was > 30 µM (inactive).

Consider `O=C(CCNC(=O)c1cccc(Cl)c1)N[C@@H]1CCCc2ccccc21`, for which the AC50 was 9.96 µM (active) in assay [4] and > 52 µM (inactive) in [5].

In the case of `CCOc1ccc(-n2nc3c(S)nnc(C)c3c2C)cc1`, the IC50 on Major prion protein was 0.321 µM (active); in the assay “cells [6]”, > 138 µM (inactive).
